Assays:
Test in all cases: relative viability (nuclei count vs DMSO), 5 days (fraction); higher = more cells survive
A549 = test system: A549
How it was run: (§1)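 Five library-drug doses in √10 steps were combined with a fixed anchor-drug dose, or a single drug was given alone, by pin tool to lung cancer cell lines in 1536-well plates the day after seeding. Nuclei were stained and counted after 5 days. Relative viability is the nuclei count in treated wells over that in vehicle wells, taken as the median of duplicate plates.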

Calu-6 = test system: Calu-6
How it was run: as §1

EBC-1 = test system: EBC-1
How it was run: as §1

IA-LM = test system: IA-LM
How it was run: as §1

NCI-H1299 = test system: NCI-H1299
How it was run: as §1

NCI-H1563 = test system: NCI-H1563
How it was run: as §1

NCI-H1623 = test system: NCI-H1623
How it was run: as §1

NCI-H1703 = test system: NCI-H1703
How it was run: as §1

NCI-H2342 = test system: NCI-H2342
How it was run: as §1

SW 900 = test system: SW 900
How it was run: as §1

NCI-H1648 = test system: NCI-H1648
How it was run: as §1

NCI-H522 = test system: NCI-H522
How it was run: as §1

O=C(O)CCCCC(CCSCc1ccccc1)SCc1ccccc1 (configuration not stated) [CPI-613] + COc1cc2c(Oc3ccc(NC(=O)C4(C(=O)Nc5ccc(F)cc5)CC4)cc3F)ccnc2cc1OCCCN1CCOCC1 [Foretinib] (partner 0.25 µM)
relative viability (A549; first compound 5 µM): 0.942 | relative viability (A549; first compound 15.81 µM): 0.829 | relative viability (A549; first compound 50 µM): 0.848 | relative viability (A549; first compound 158.11 µM): 0.944 | relative viability (A549; first compound 500 µM): 0.641 | relative viability (Calu-6; first compound 5 µM): 0.872 | relative viability (Calu-6; first compound 15.81 µM): 0.848 | relative viability (Calu-6; first compound 50 µM): 0.865 | relative viability (Calu-6; first compound 158.11 µM): 0.769 | relative viability (Calu-6; first compound 500 µM): 0.675 | relative viability (EBC-1; first compound 5 µM): 0.0958 | relative viability (EBC-1; first compound 15.81 µM): 0.0971 | relative viability (EBC-1; first compound 50 µM): 0.0899 | relative viability (EBC-1; first compound 158.11 µM): 0.0957 | relative viability (EBC-1; first compound 500 µM): 0.0975 | relative viability (IA-LM; first compound 5 µM): 1.12 | relative viability (IA-LM; first compound 15.81 µM): 1.16 | relative viability (IA-LM; first compound 50 µM): 1.13 | relative viability (IA-LM; first compound 158.11 µM): 0.933 | relative viability (IA-LM; first compound 500 µM): 0.872 | relative viability (NCI-H1299; first compound 5 µM): 1.03 | relative viability (NCI-H1299; first compound 15.81 µM): 1.04 | relative viability (NCI-H1299; first compound 50 µM): 1.1 | relative viability (NCI-H1299; first compound 158.11 µM): 1.08 | relative viability (NCI-H1299; first compound 500 µM): 1.14 | relative viability (NCI-H1563; first compound 5 µM): 0.957 | relative viability (NCI-H1563; first compound 15.81 µM): 0.896 | relative viability (NCI-H1563; first compound 50 µM): 0.892 | relative viability (NCI-H1563; first compound 158.11 µM): 0.665 | relative viability (NCI-H1563; first compound 500 µM): 0.231 | relative viability (NCI-H1623; first compound 5 µM): 0.845 | relative viability (NCI-H1623; first compound 15.81 µM): 0.921 | relative viability (NCI-H1623; first compound 50 µM): 0.972 | relative viability (NCI-H1623; first compound 158.11 µM): 0.59 | relative viability (NCI-H1623; first compound 500 µM): 0.831 | relative viability (NCI-H1703; first compound 5 µM): 0.442 | relative viability (NCI-H1703; first compound 15.81 µM): 0.353 | relative viability (NCI-H1703; first compound 158.11 µM): 0.331 | relative viability (NCI-H1703; first compound 500 µM): 0.33 | relative viability (NCI-H2342; first compound 5 µM): 1.04 | relative viability (NCI-H2342; first compound 15.81 µM): 0.978 | relative viability (NCI-H2342; first compound 50 µM): 1.04 | relative viability (NCI-H2342; first compound 158.11 µM): 1.12 | relative viability (NCI-H2342; first compound 500 µM): 1.05 | relative viability (SW 900; first compound 5 µM): 0.743 | relative viability (SW 900; first compound 15.81 µM): 0.776 | relative viability (SW 900; first compound 50 µM): 0.792 | relative viability (SW 900; first compound 158.11 µM): 0.418 | relative viability (SW 900; first compound 500 µM): 0.0443

O=C(O)CCCCC(CCSCc1ccccc1)SCc1ccccc1 (configuration not stated) [CPI-613] + COc1cccc2cc(-c3nc([C@H]4CC[C@H](C(=O)O)CC4)n4ncnc(N)c34)[nH]c12 [OSI-027] (partner 0.5 µM)
relative viability (NCI-H1563; first compound 5 µM): 0.76 | relative viability (NCI-H1563; first compound 15.81 µM): 0.652 | relative viability (NCI-H1563; first compound 50 µM): 0.814 | relative viability (NCI-H1563; first compound 158.11 µM): 0.52 | relative viability (NCI-H1563; first compound 500 µM): 0.223 | relative viability (NCI-H1623; first compound 5 µM): 0.431 | relative viability (NCI-H1623; first compound 15.81 µM): 0.436 | relative viability (NCI-H1623; first compound 50 µM): 0.438 | relative viability (NCI-H1623; first compound 158.11 µM): 0.368 | relative viability (NCI-H1623; first compound 500 µM): 0.408 | relative viability (NCI-H1648; first compound 5 µM): 0.273 | relative viability (NCI-H1648; first compound 15.81 µM): 0.241 | relative viability (NCI-H1648; first compound 50 µM): 0.22 | relative viability (NCI-H1648; first compound 500 µM): 0.203 | relative viability (NCI-H2342; first compound 5 µM): 0.568 | relative viability (NCI-H2342; first compound 15.81 µM): 0.572 | relative viability (NCI-H2342; first compound 50 µM): 0.643 | relative viability (NCI-H2342; first compound 158.11 µM): 0.552 | relative viability (NCI-H2342; first compound 500 µM): 0.643 | relative viability (NCI-H522; first compound 5 µM): 0.706 | relative viability (NCI-H522; first compound 15.81 µM): 0.747 | relative viability (NCI-H522; first compound 50 µM): 0.7 | relative viability (NCI-H522; first compound 158.11 µM): 0.612 | relative viability (NCI-H522; first compound 500 µM): 0.467 | relative viability (SW 900; first compound 5 µM): 0.44 | relative viability (SW 900; first compound 15.81 µM): 0.547 | relative viability (SW 900; first compound 50 µM): 0.65 | relative viability (SW 900; first compound 158.11 µM): 0.245 | relative viability (SW 900; first compound 500 µM): 0.0283

O=C(O)CCCCC(CCSCc1ccccc1)SCc1ccccc1 (configuration not stated) [CPI-613] + Cc1cc(Nc2cc(N3CCN(C)CC3)nc(Sc3ccc(NC(=O)C4CC4)cc3)n2)n[nH]1 [Tozasertib] (partner 0.1 µM)
relative viability (NCI-H1623; first compound 5 µM): 0.442 | relative viability (NCI-H1623; first compound 15.81 µM): 0.387 | relative viability (NCI-H1623; first compound 50 µM): 0.421 | relative viability (NCI-H1623; first compound 158.11 µM): 0.417 | relative viability (NCI-H1623; first compound 500 µM): 0.426 | relative viability (NCI-H1648; first compound 5 µM): 0.473 | relative viability (NCI-H1648; first compound 15.81 µM): 0.312 | relative viability (NCI-H1648; first compound 50 µM): 0.589 | relative viability (NCI-H1648; first compound 500 µM): 0.391 | relative viability (NCI-H2342; first compound 5 µM): 0.523 | relative viability (NCI-H2342; first compound 15.81 µM): 0.527 | relative viability (NCI-H2342; first compound 50 µM): 0.511 | relative viability (NCI-H2342; first compound 158.11 µM): 0.484 | relative viability (NCI-H2342; first compound 500 µM): 0.625 | relative viability (NCI-H522; first compound 5 µM): 0.512 | relative viability (NCI-H522; first compound 15.81 µM): 0.563 | relative viability (NCI-H522; first compound 50 µM): 0.573 | relative viability (NCI-H522; first compound 158.11 µM): 0.419 | relative viability (NCI-H522; first compound 500 µM): 0.325 | relative viability (SW 900; first compound 5 µM): 0.511 | relative viability (SW 900; first compound 15.81 µM): 0.557 | relative viability (SW 900; first compound 50 µM): 0.473 | relative viability (SW 900; first compound 158.11 µM): 0.199 | relative viability (SW 900; first compound 500 µM): 0.0732

— the supplement of paper PMC10307832
